ChEMBL document CHEMBL4321782, “Gasdermin D (GSDMD) as a new target for the treatment of infection” (Medchemcomm, 2019)
Residues, ends and D or L forms follow the SMILES beside them. *: point of attachment. Cbz = O=C(OCc1ccccc1)*; CH2F = FC*

How the values were obtained:
[1] = molecular target: T1, Gasdermin-D (Homo sapiens) (UniProt P57764); assay: Inhibition of GSDMD in LPS-induced human monocyte/macrophages assessed as inhibition of pyroptosis by fluorogenic liposome leakage assay; conditions: concentration not given here
T1 sequence (whole entry): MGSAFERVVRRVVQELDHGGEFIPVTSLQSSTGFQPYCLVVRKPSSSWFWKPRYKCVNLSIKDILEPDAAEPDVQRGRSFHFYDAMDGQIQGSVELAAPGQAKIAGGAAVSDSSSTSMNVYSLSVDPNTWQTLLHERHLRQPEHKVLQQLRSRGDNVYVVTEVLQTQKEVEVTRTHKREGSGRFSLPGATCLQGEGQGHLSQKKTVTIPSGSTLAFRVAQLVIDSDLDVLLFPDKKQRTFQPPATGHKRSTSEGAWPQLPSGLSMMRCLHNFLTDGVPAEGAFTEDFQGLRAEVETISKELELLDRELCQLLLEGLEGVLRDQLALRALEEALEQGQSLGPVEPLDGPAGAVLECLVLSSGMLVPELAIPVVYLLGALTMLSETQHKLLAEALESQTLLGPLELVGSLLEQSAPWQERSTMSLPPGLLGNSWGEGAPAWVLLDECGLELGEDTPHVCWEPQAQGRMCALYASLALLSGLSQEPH

[2] = molecular target: T2, Gasdermin-D (Mus musculus) (UniProt Q9D8T2); assay: Inhibition of GSDMD in LPS-induced mouse monocyte/macrophages assessed as inhibition of pyroptosis by fluorogenic liposome leakage assay; conditions: concentration not given here
T2 sequence (whole entry): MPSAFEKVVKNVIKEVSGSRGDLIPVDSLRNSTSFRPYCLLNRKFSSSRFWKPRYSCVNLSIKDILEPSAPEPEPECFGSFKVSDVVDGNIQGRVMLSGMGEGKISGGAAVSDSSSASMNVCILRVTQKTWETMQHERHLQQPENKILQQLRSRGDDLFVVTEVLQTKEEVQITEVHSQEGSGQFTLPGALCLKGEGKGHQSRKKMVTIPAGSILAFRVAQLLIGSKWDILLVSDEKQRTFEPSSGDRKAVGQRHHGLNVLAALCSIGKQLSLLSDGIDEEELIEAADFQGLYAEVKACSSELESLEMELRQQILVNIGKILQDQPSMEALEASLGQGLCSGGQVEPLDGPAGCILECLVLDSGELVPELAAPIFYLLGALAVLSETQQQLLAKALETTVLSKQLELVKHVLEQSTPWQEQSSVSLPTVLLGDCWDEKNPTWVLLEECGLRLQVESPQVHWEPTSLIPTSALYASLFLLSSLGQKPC

[3] = molecular target: T1, Gasdermin-D (Homo sapiens); assay: Inhibition of human GSDMD expressed in HEK293 cells assessed as inhibition of GSDMD -induced lethality; assay type: cell-based
[4] = molecular target: T2, Gasdermin-D (Mus musculus); assay: Inhibition of mouse GSDMD expressed in HEK293 cells assessed as inhibition of GSDMD -induced lethality; assay type: cell-based

Row | inhibition [1] | inhibition [2] | SMILES | INH [3] | INH [4]
1 | > 50% | > 50% | CC(C)[C@H](NC(=O)OCc1ccccc1)C(=O)N[C@@H](C)C(=O)N[C@@H](CC(=O)O)C(=O)CF (Cbz-Val-Ala-Asp-CH2F) | – | –
2 | > 50% | > 50% | Cc1ccc(S(=O)(=O)/C=C/C#N)cc1 | – | –
3 | – | – | COc1ccccc1-c1cc2n(n1)Cc1ccc(NC(C)=O)cc1OC2 | 1 µM | 5 µM
